According to patent US11813305B2, “Endoplasmic reticulum stress as a predictive tool in cancer therapy and a combination therapy for the treatment of cancer” (IMMUNE SYSTEM KEY LTD., priority 2016, dated 2023):
Square brackets hold non-standard residues; d marks the D form. Peptide text beside a SMILES is read from it.

Columns and labels:
[1] = Safety and tolerability (adverse events, DLT, MTD), phase I study; format: in vivo, human
Source text: The present clinical study is a formal open label phase I dose escalation study. The primary objective was to determine the maximum tolerated dose (MTD) and safety profile of dTCApFs. Assessments included drug exposure, adverse events (AEs; graded according to the Common Terminology Criteria for Adverse Events (CTCAE), and characterization of dose-limiting toxicities (DLTs). Other objectives included assessment of serum levels of angiogenic factors after dTCApFs administration, pharmacokinetics (PK) and pharmacodynamics (PD) analyses, as well as assessment of receptor staining and tumor response. […]
Subjects with evaluable or measurable disease are assessed according to the response evaluation criteria in solid tumors (RECIST) version 1.1 every 2 cycles, where a cycle is defined as 4 weeks of treatment with three administrations per week. Tumor lesion measurements and changes from baseline are summarized by cycle and dose cohort.

[2] = human, in vivo
Protocol: The dose escalation study followed a traditional “3+3” scheme and included doses of 6, 12, 24, 48, and 96 mg/m^2 intravenous (i.v.) dTCApFs, 3 times/week in consecutive 28-day cycles. In all 3-patient cohorts, there were 2-4 weeks between the first dose for the first and second patients, and ≥1 week for the third patient. New dose levels started after follow up of ≥28 days for 3 patients at the previous level. MTD was defined as the highest dose level at which ≥1 of 3 subjects experience a DLT during their first cycle of treatment. […] In addition, PK parameters, including area under the curve (AUC), maximal plasma concentration (Cmax), and plasma half-life (t1/2) were determined. PK parameters were estimated using non-compartmental models.
dTCApFs powder for solution for injection is supplied as a lyophilized 5 mL vial containing either 15 mg (7.5 mg/mL) or 10 mL vial containing 80 mg (40 mg/mL) of the active substance with 4.8% mannitol, for reconstitution to a final volume of 2 mL with water for injection per vial as described above. The reconstituted 2 mL vial of dTCApFs powder for solution for injection must thereafter be diluted to a final volume 100 mL in aqueous Dextrose 5% for infusion for dose levels up to and including 48 mg/m2. For dose levels above 48 mg/m2, the final dilution volume was 250 mL. dTCApFs for injection was administered intravenously (iv) during 60 minutes.
PK parameters, including AUC (0-24), Cmax, Cmin, Tmax and t1/2 are estimated using non-compartmental models. Comparisons across dose levels are made to assess proportionality.

Compound: CC(C)C[C@@H](NC(=O)[C@H](NC(=O)[C@@H](CO)NC(=O)[C@H]1CCCN1C(=O)[C@@H](CC(C)C)NC(=O)[C@@H](Cc1ccccc1)NC(=O)[C@@H](Cc1ccccc1)NC(=O)[C@H](NC(=O)[C@@H](Cc1c[nH]c2ccccc12)NC(=O)[C@H](N)Cc1c[nH]c2ccccc12)[C@H](C)O)[C@H](C)O)C(=O)N[C@H](Cc1c[nH]c2ccccc12)C(=O)N[C@H](CCC(=O)O)C(=O)N[C@H](CCCNC(=N)N)C(=O)N[C@H](CCCCN)C(=O)O [dTCApFs, Trp Trp Thr Phe Phe Leu Pro Ser Thr Leu Trp Glu Arg Lys] (H-[dW][dW][dT][dF][dF][dL][dP][dS][dT][dL][dW][dE][dR][dK]-OH; N-terminus and C-terminus assumed)
- Adverse event Grade 2: Pain, leg ([1]; 24 mg/m^2, n = 3): 0
- Adverse event Grade 2: Pain, upper back ([1]; 24 mg/m^2, n = 3): 0
- Adverse event Grade 2: Pruritus ([1]; 24 mg/m^2, n = 3): 0
- Adverse event Grade 2: Urinary tract infection ([1]; 24 mg/m^2, n = 3): 0
- Adverse event Grade 2: Urticaria ([1]; 24 mg/m^2, n = 3): 0
- Adverse event Grade 3: Bilirubin increase ([1]; 24 mg/m^2, n = 3): 0
- Adverse event Grade 3: Bowel obstruction ([1]; 24 mg/m^2, n = 3): 0
- Adverse event Grade 3: Diarrhea ([1]; 24 mg/m^2, n = 3): 0
- Adverse event Grade 3: GI hemorrhage ([1]; 24 mg/m^2, n = 3): 0
- Adverse event Grade 3: Hypertension ([1]; 24 mg/m^2, n = 3): 1
- Adverse event Grade 3: Increased INR ([1]; 24 mg/m^2, n = 3): 0
- Adverse event Grade 4: Vomiting ([1]; 24 mg/m^2, n = 3): 0
- Adverse event Grade 1: Abdominal pain ([1]; 48 mg/m^2, n = 3): 0
- Adverse event Grade 1: Anemia ([1]; 48 mg/m^2, n = 3): 0
- Adverse event Grade 1: Bowel obstruction ([1]; 48 mg/m^2, n = 3): 0
- Adverse event Grade 1: Dehydration ([1]; 48 mg/m^2, n = 3): 0
- Adverse event Grade 1: Diarrhea ([1]; 48 mg/m^2, n = 3): 0
- Adverse event Grade 1: Fatigue ([1]; 48 mg/m^2, n = 3): 1
- Adverse event Grade 1: GI hemorrhage ([1]; 48 mg/m^2, n = 3): 0
- Adverse event Grade 1: Hypertension ([1]; 48 mg/m^2, n = 3): 0
- Adverse event Grade 1: Increased INR ([1]; 48 mg/m^2, n = 3): 1
- Adverse event Grade 1: Neuropathy ([1]; 48 mg/m^2, n = 3): 0
- Adverse event Grade 1: Vomiting ([1]; 48 mg/m^2, n = 3): 0
- Adverse event Grade 2: ALT increase ([1]; 48 mg/m^2, n = 3): 0
- Adverse event Grade 2: AST increase ([1]; 48 mg/m^2, n = 3): 0
- Adverse event Grade 2: Bilirubin increase ([1]; 48 mg/m^2, n = 3): 1
- Adverse event Grade 2: Cough ([1]; 48 mg/m^2, n = 3): 0
- Adverse event Grade 2: Liver dysfunction ([1]; 48 mg/m^2, n = 3): 0
- Adverse event Grade 2: Pain, leg ([1]; 48 mg/m^2, n = 3): 0
- Adverse event Grade 2: Pain, upper back ([1]; 48 mg/m^2, n = 3): 0
- Adverse event Grade 2: Pruritus ([1]; 48 mg/m^2, n = 3): 0
- Adverse event Grade 2: Urinary tract infection ([1]; 48 mg/m^2, n = 3): 0
- Adverse event Grade 2: Urticaria ([1]; 48 mg/m^2, n = 3): 0
- Adverse event Grade 3: Bilirubin increase ([1]; 48 mg/m^2, n = 3): 1
- Adverse event Grade 3: Bowel obstruction ([1]; 48 mg/m^2, n = 3): 0
- Adverse event Grade 3: Diarrhea ([1]; 48 mg/m^2, n = 3): 0
- Adverse event Grade 3: GI hemorrhage ([1]; 48 mg/m^2, n = 3): 0
- Adverse event Grade 3: Hypertension ([1]; 48 mg/m^2, n = 3): 0
- Adverse event Grade 3: Increased INR ([1]; 48 mg/m^2, n = 3): 1
- Adverse event Grade 4: Vomiting ([1]; 48 mg/m^2, n = 3): 0
- Adverse event Grade 1: Abdominal pain ([1]; 96 mg/m^2, n = 5): 0
- Adverse event Grade 1: Anemia ([1]; 96 mg/m^2, n = 5): 0
- Adverse event Grade 1: Bowel obstruction ([1]; 96 mg/m^2, n = 5): 0
- Adverse event Grade 1: Dehydration ([1]; 96 mg/m^2, n = 5): 1
- Adverse event Grade 1: Diarrhea ([1]; 96 mg/m^2, n = 5): 2
- Adverse event Grade 1: Fatigue ([1]; 96 mg/m^2, n = 5): 0
- Adverse event Grade 1: GI hemorrhage ([1]; 96 mg/m^2, n = 5): 0
- Adverse event Grade 1: Hypertension ([1]; 96 mg/m^2, n = 5): 1
- Adverse event Grade 1: Increased INR ([1]; 96 mg/m^2, n = 5): 0
- Adverse event Grade 1: Neuropathy ([1]; 96 mg/m^2, n = 5): 0
- Adverse event Grade 1: Vomiting ([1]; 96 mg/m^2, n = 5): 1
- Adverse event Grade 2: ALT increase ([1]; 96 mg/m^2, n = 5): 1
- Adverse event Grade 2: AST increase ([1]; 96 mg/m^2, n = 5): 1
- Adverse event Grade 2: Bilirubin increase ([1]; 96 mg/m^2, n = 5): 1
- Adverse event Grade 2: Cough ([1]; 96 mg/m^2, n = 5): 0
- Adverse event Grade 2: Liver dysfunction ([1]; 96 mg/m^2, n = 5): 1
- Adverse event Grade 2: Pain, leg ([1]; 96 mg/m^2, n = 5): 0
- Adverse event Grade 2: Pain, upper back ([1]; 96 mg/m^2, n = 5): 1
- Adverse event Grade 2: Pruritus ([1]; 96 mg/m^2, n = 5): 1
- Adverse event Grade 2: Urinary tract infection ([1]; 96 mg/m^2, n = 5): 0
- Adverse event Grade 2: Urticaria ([1]; 96 mg/m^2, n = 5): 2
- Adverse event Grade 3: Bilirubin increase ([1]; 96 mg/m^2, n = 5): 1
- Adverse event Grade 3: Bowel obstruction ([1]; 96 mg/m^2, n = 5): 0
- Adverse event Grade 3: Diarrhea ([1]; 96 mg/m^2, n = 5): 1
- Adverse event Grade 3: GI hemorrhage ([1]; 96 mg/m^2, n = 5): 0
- Adverse event Grade 3: Hypertension ([1]; 96 mg/m^2, n = 5): 2
- Adverse event Grade 3: Increased INR ([1]; 96 mg/m^2, n = 5): 0
- Adverse event Grade 4: Vomiting ([1]; 96 mg/m^2, n = 5): 1
- relation of adverse events (AEs) to study drug ([1]; AEs of Table 4): None were related to study drug
- grade 4 AE vomiting, number of patients ([1]; all dose groups): 1
- dose-limiting toxicities (DLTs) ([1]; any patient up to cohort 5 (6-96 mg/m^2)): No dose-limiting toxicities (DLTs) were observed
- MTD ([1]; doses of 6, 12, 24, 48, and 96 mg/m^2 i.v., 3 times/week): not reached
- tolerability of treatment ([1]; overall, 17 patients): well-tolerated with no cumulative toxicity
- relation of t1/2, Cmax and AUC0 to dose [2]: linearly related to dose
